Columns and labels:
Hsp70 = biological target: T1, Hsp70 (Homo sapiens, UniProt P0DMV8); assay: Measurement of affinity between compounds and Hsp70 (SPR, BIACORE T100); assay type: binding; conditions: for Kd: steady state model, 25° C., read-out: KD (binding constant between the compounds and Hsp70)
T1 construct: purchased Enzo Life Sciences ADI-ESP-550-D
Protocol: Instrument for measuring the affinity between Example compounds and Hsp70 is BIACORE T100 Biomolecular Interaction Analysis (GE, USA), and the positive control drug is VER-155008 that is well-recognized as Hsp70 inhibitor now, and, on the basis of the measured results, according to binding characteristics between the compounds and protein, the binding constant (equilibrium dissociation constant KD) between drugs and protein is calculated by selecting steady state model with the formula: Conc*Rmax/[conc+KD]+offset.
1. Instrument: BIACORE T100 Biomolecular Interaction Analysis (GE, USA)
2. Reagents: PBS Buffer (×10), P20, CM5 chip (GE, USA), Hsp70 (human, ADI-ESP-550-D), manufactured by Enzo Life Sciences.
30 mM mother liquor of the compound was formulated with DMSO, which was diluted to 2 mM application solution with DMSO before use. 5 μl of the application solution was taken and diluted with 95 μl 1.05×PBS to 100 μM, and then diluted in turn with PBS containing 5% DMSO to […]. PBS containing 5% DMSO was used as solvent control.
Hsp70 protein was diluted with 10 mmol/L sodium acetate buffer solution (pH 5.0) to 30 μg/ml, and coupled directly on a hydrophilic carboxylmethyl dextran matrix sensor chip M5 through normalized primary amine coupling reaction, RU=11209, and then the chip was balanced for 1-2 h with PBS Buffer at […].
At a flow rate of […], with PBS containing 5% DMSO as mobile phase, at 25° C., the compound was introduced in the sequence of 0.003, 0.01, 0.03, 0.1, 0.3, 1, 3 and 10 μM, with binding time of 90 seconds, and dissociation time of 120 seconds.
According to binding characteristics between the compounds and protein, the binding constant (equilibrium dissociation constant KD) between drugs and protein was calculated by selecting steady state model with the formula: Conc*Rmax/[conc+KD]+offset.

BT474 = assay: Antitumor bioactivity evaluation, breast cancer cells (ATPlite); assay type: cell-based; conditions: Homo sapiens, BT-474; test sample 5 μM, 72 hours; read-out: Inhibitory Rate % BT474
Method in brief: (§1)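 Single-concentration screen: 5 μM compound, or 5 μM compound plus 1 μM lapatinib, on adhered cells (5000/well) for 72 h. Viability by ATPlite luminescence relative to solvent control.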

MDA-MB-361 = assay: as above; assay type: cell-based; conditions: Homo sapiens, test sample 5 μM, 72 hours, read-out: Inhibitory Rate % MDA-MB-361
Method in brief: as §1

MDA-MB-453 = assay: as above; assay type: cell-based; conditions: Homo sapiens, test sample 5 μM, 72 hours, read-out: Inhibitory Rate % MDA-MB-453
Method in brief: as §1

SK-BR3 = assay: as above; assay type: cell-based; conditions: Homo sapiens, SK-BR-3; test sample 5 μM, 72 hours; read-out: Inhibitory Rate % SK-BR3
Method in brief: as §1

SK/Lap^R1.0 = assay: as above; assay type: cell-based; conditions: Homo sapiens; test sample 5 μM, 72 hours; read-out: Inhibitory Rate % SKLap^R1.0
Method in brief: as §1

BT/Lap^R1.0 = assay: as above; assay type: cell-based, human; conditions: Homo sapiens; test sample 5 μM, 72 hours; read-out: Inhibitory Rate % BT/Lap^R1.0
Method in brief: as §1

T1 sequence (P0DMV8 whole entry): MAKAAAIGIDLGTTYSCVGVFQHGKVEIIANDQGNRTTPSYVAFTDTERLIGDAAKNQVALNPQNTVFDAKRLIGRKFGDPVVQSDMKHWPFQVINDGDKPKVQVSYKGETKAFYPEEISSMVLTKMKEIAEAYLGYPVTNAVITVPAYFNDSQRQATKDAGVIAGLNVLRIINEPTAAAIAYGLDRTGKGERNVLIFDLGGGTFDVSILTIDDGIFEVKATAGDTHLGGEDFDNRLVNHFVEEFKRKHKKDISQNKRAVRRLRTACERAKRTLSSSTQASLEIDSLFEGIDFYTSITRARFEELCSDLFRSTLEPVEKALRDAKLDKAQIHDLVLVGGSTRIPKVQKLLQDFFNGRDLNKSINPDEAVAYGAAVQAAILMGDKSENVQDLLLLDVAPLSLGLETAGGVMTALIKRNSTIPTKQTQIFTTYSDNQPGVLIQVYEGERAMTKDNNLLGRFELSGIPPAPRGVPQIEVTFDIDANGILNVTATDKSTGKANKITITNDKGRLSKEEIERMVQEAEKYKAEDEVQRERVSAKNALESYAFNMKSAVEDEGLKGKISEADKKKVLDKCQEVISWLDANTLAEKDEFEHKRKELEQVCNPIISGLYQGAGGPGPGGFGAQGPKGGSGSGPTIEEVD

Kd (Hsp70) [nM]	Structure (SMILES)	KD compared with positive control drug VER-155008 (Hsp70)	inhibition at 5 µM (BT474) [%]	inhibition at 5 µM (MDA-MB-361) [%]	inhibition at 5 µM (MDA-MB-453) [%]	inhibition at 5 µM (SK-BR3) [%]	inhibition at 5 µM (SK/Lap^R1.0) [%]	inhibition at 5 µM (BT/Lap^R1.0) [%]
200	Fc1ccc(CNC2CCN(Cc3cnc(Cl)s3)CC2)cc1 [Example 12, N-(4-fluorobenzyl)-N-{1-[(2-chlorothiazol-5-yl)methyl]piperidin-4-yl}amine]	KD values equivalent to that of the positive control drug VER-155008	5.4	4.8	0.1	22.4	4.4	9.1
281	COc1nccc(N2CCC(N(C)Cc3ccc(F)cc3)CC2)n1 [Example 57, N-methyl-N-(4-fluorobenzyl)-N-[1-(2-methoxypyrimidin-4-yl)piperidin-4-yl]amine]	KD values equivalent to that of the positive control drug VER-155008	12.5	12.8	40.4	14.4	9	14.6
245	CN(Cc1ccccc1C#N)C1CCN(Cc2cnc(Cl)s2)CC1 [Example 14, N-methyl-N-(2-cyanobenzyl)-N-{1-[(2-chlorothiazol-5-yl)methyl]piperidin-4-yl}amine]	KD values equivalent to that of the positive control drug VER-155008	-4.1	-8.5	8.2	7.3	4.2	4
–	COc1cc(N2CCC(N(C)Cc3ccc(C)cc3)CC2)ncn1 [Example 59, N-methyl-N-(4-methylbenzyl)-N-[1-(6-methoxypyrimidin-4-yl)piperidin-4-yl]amine]	–	5	10.6	13.4	20.6	22	8
–	COc1nccc(N2CCC(N(C)Cc3ccccc3Cl)CC2)n1 [Example 43, N-methyl-N-(2-chlorobenzyl)-N-[1-(2-methoxypyrimidin-4-yl)piperidin-4-yl]amine]	–	61	45.7	69.3	19.3	29.4	56.9
–	CCOc1ncc(CN2CCC(N(C)Cc3c(Cl)cccc3Cl)CC2)s1 [Example 9, N-methyl-N-(2,6-dichlorobenzyl)-N-{[1-(2-ethoxythiazol-5-yl)methyl]piperidin-4-yl}amine]	–	38.2	24.5	51.5	17.9	5.1	25.6
–	CSc1nccc(N2CCC(N(C)Cc3cccc(Cl)c3)CC2)n1 [Example 39, N-methyl-N-(3-chlorobenzyl)-N-[1-(2-methylthiopyrimidin-4-yl)piperidin-4-yl]amine]	–	35.1	39.1	65.7	26.4	24.4	25.1
–	CSc1ncc(CN2CCC(N(C)Cc3ccc(F)cc3)CC2)s1 [Example 29, N-methyl-N-(4-fluorobenzyl)-N-{1-[(2-methylthiothiazol-5-yl)methyl]piperidin-4-yl}amine]	–	54.4	32.8	67.4	40.9	11.7	50.5
–	CSc1ncc(CN2CCC(N(C)Cc3cc(Cl)ccc3Cl)CC2)s1 [Example 34, N-methyl-N-(2,5-dichlorobenzyl)-N-{1-[(2-methylthiothiazol-5-yl)methyl]piperidin-4-yl}amine]	–	42.3	25.4	59.4	23.3	11.4	34.4
–	CCOc1ncc(CN2CCC(N(C)Cc3ccc(C#N)cc3)CC2)s1 [Example 4, N-methyl-N-(4-cyanobenzyl)-N-{1-[(2-ethoxythiazol-5-yl)methyl]piperidin-4-yl}amine]	–	61.7	51.3	70.5	45.5	6.7	66.1
204	CSc1nccc(N2CCC(N(C)Cc3ccc(F)cc3)CC2)n1 [Example 35, N-methyl-N-(4-fluorobenzyl)-N-[1-(2-methylthiopyrimidin-4-yl)piperidin-4-yl]amine]	KD values equivalent to that of the positive control drug VER-155008	40.5	46	82.3	31.5	30.9	44.7
